Results as given in patent US20060228313A1, “Method of cosmetic depigmentation care by applying at least one aurone” (Coletica, priority 2005, published 2006).

Experiments:
[1] = target: T1, Human tyrosinase (Homo sapiens, UniProt P14679); assay: Inhibition of human tyrosinase in a monolayer after application of the actives on normal human melanocytes; type: cell-based; details: for Inhibition of human tyrosinase after application on normal human melanocytes, percentage inhibition: 24 hours
T1 construct: Normal human melanocytes (originating from abdominal plasty) are sown in a 24-well plate; endogenous in cells; host or cells: normal human melanocytes (abdominal plasty; donors of light, brown and black phototype)
T1 sequence (P14679 19-529): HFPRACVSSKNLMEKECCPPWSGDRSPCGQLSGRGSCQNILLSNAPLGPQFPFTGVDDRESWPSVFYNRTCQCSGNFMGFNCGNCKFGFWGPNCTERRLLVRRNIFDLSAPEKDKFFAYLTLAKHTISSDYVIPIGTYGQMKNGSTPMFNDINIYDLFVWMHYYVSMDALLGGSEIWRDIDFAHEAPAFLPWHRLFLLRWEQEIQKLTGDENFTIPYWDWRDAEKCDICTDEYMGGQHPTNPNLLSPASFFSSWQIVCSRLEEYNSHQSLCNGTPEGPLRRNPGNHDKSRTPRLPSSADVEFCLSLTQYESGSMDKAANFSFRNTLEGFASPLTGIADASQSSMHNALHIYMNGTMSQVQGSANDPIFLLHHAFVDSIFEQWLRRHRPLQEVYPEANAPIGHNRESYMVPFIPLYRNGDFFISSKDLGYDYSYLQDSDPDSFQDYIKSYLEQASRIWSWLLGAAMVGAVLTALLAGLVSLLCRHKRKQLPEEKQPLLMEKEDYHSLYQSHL
Procedure: Normal human melanocytes (originating from abdominal plasty) are sown in a 24-well plate at the rate of 80,000 cells per well. They are cultivated up to confluence and the actives are applied for 24 hours in the culture media. After 24 hours, the media are removed and the melanocytes are picked up by mechanical action. An extraction is made by heat shock and the supernatants are then recovered and then incubated with MBTH (Sigma) and L-Dopa (Sigma). The OD at 490 nm is measured after 30 minutes, and the inhibition is of the tyrosinase is calculated by comparing the OD at 490 nm to the protein level (measured in each culture well) of the test with respect to the ratio: OD 490 nm/concentration of protein of the negative control (non-treated control). […]

[2] = system: normal human melanocytes; assay: Cytotoxicity on normal human melanocytes, PNPP determination; type: cell-based; details: 24 hours
Procedure: The cytotoxicity of the actives is studied on normal human melanocytes in a 24-well plate by a determination with PNPP(P-nitrophenyl phosphate), a substance which is converted into p-nitrophenol by the intracellular acid phosphatases of viable cells.
The absorbance of p-nitrophenol at 405 nm is directly proportional to the number of viable cells.
The actives are tested at 2 different concentrations (10^−4 M and 10^−5 M) and are added to the culture medium and are incubated at 37° C. for 24 hours. The determination with PNPP is carried out on a cell mat and the results are expressed as a percentage viability with respect to the negative control (non-treated wells).

Compound | Inhibition of human tyrosinase on normal human melanocytes, result in words ([1]; model of Example 15) | Inhibition of human tyrosinase after application on normal human melanocytes, percentage inhibition ([1]; 10^−4M) [%] | Inhibition of human tyrosinase after application on normal human melanocytes, percentage inhibition ([1]; 10^−5M) [%] | Percentages viability on normal human melanocytes ([2]; 10^−4 M) [%] | Percentages viability on normal human melanocytes ([2]; 10^−5 M) [%]
O=c1cc(-c2ccc(O)cc2)oc2cc(O)cc(O)c12 [Apigenin, reference compound] | do not inhibit tyrosinase | – | – | – | –
CCc1ccc(/C=C2\Oc3cc(O)ccc3C2=O)cc1 [Example 3a, (Z)-2-(4′-Ethyl)Benzylidene-6-Hydroxybenzofuran-3(2H)-one] | – | 0 | 23.9 | – | –
CCc1ccccc1/C=C1\Oc2cc(O)ccc2C1=O [Example 3b, (Z)-2-(2′-Ethyl)Benzylidene-6-Hydroxybenzofuran-3(2H)-one] | – | 0 | 0 | – | –
COc1cc(OC)c2c(c1)OCC2=O [Example 4, 4,6-Dimethoxybenzofuran-3(2H)-one] | – | – | – | 106.77 | 85.33
COc1cc(OC)c2c(c1)O/C(=C\c1ccccc1)C2=O [Example 5, (Z)-2-Benzylidene-4,6-dimethoxybenzofuran-3(2H)-one] | – | – | – | 83.1 | 98.55
COc1cc(OC)c2c(c1)O/C(=C\c1ccc(S(=O)(=O)O)cc1)C2=O [Example 5e, (Z)-4,6-dimethoxy-2-(4′-sulfonatebenzylidene)benzofuran-3(2H)-one] | – | 0 | 1.44 | – | –
COc1cc(OC)c2c(c1)O/C(=C\c1ccc(S(=O)(=O)O)cc1S(=O)(=O)O)C2=O [Example 5f, (Z)-4,6-dimethoxy-2-(2′,4′-disulfonatebenzylidene)benzofuran-3(2H)-one] | – | 9.36 | 2.88 | – | –
COc1cc(OC)c2c(c1)O/C(=C\c1ccco1)C2=O [Example 5m, (Z)-4,6-Dimethoxy-2-[(furan)methylene]benzofuran-3(2H)-one] | – | 19.5 | 6.4 | – | –
CCc1ccc(/C=C2\Oc3cc(OC)cc(OC)c3C2=O)o1 [Example 5n, (Z)-4,6-Dimethoxy-2-[(5-ethylfuran)methylene]benzofuran-3(2H)-one] | – | 7.8 | 0 | – | –
COc1cc(OC)c2c(c1)O/C(=C\c1cc(C)c(C)o1)C2=O [Example 5o, (Z)-4,6-Dimethoxy-2-[(4,5-dimethylfuran)methylene]benzofuran-3(2H)-one] | – | 23.2 | 12.1 | – | –
COc1cc(OC)c2c(c1)O/C(=C\c1cccs1)C2=O [Example 5p, (Z)-4,6-Dimethoxy-2-[(thiophene)methylene]benzofuran-3(2H)-one] | – | 31.3 | 6.4 | – | –
COc1cc(OC)c2c(c1)O/C(=C\c1ccc(C)s1)C2=O [Example 5q, (Z)-4,6-Dimethoxy-2-[(5-methylthiophene)methylene]benzofuran-3(2H)-one] | – | 4.8 | 0 | – | –
CCc1ccc(/C=C2\Oc3cc(OC)cc(OC)c3C2=O)s1 [Example 5r, (Z)-4,6-Dimethoxy-2-[(5-ethylthiophene)methylene]benzofuran-3(2H)-one] | – | 11.9 | 2.1 | – | –
COc1cc(OC)c2c(c1)O/C(=C\c1ccc[nH]1)C2=O [Example 5s, (Z)-4,6-Dimethoxy-2-[(pyrrole)methylene]benzofuran-3(2H)-one] | – | 13.7 | 0 | – | –
COc1cc(OC)c2c(c1)O/C(=C\c1[nH]c(C)cc1C)C2=O [Example 5t, (Z)-4,6-Dimethoxy-2-[(3,5-dimethylpyrrole)methylene]benzofuran-3(2H)-one] | – | 5.1 | 0 | – | –
O=C1/C(=C/c2ccc(S(=O)(=O)O)cc2)Oc2cc(O)cc(O)c21 [Example 7e] | – | 0 | 4.83 | – | –
CCCc1ccc(/C=C2\Oc3cc(O)cc(O)c3C2=O)cc1 [Example 7h] | – | 5.43 | 26.88 | – | –
CC(C)c1ccc(/C=C2\Oc3cc(O)cc(O)c3C2=O)cc1 [Example 7i] | – | 0 | 31.86 | – | –
CC(C)(C)c1ccc(/C=C2\Oc3cc(O)cc(O)c3C2=O)cc1 [Example 7k] | – | 0 | 25.1 | – | –
CCc1ccccc1/C=C1\Oc2cc(O)cc(O)c2C1=O [Example 7l] | – | 0 | 6.1 | – | –
O=C1/C(=C/c2ccco2)Oc2cc(O)cc(O)c21 [Example 7m, (Z)-4,6-Dihydroxy-2-[(furan)methylene]benzofuran-3(2H)-one] | – | 23.6 | 6.4 | – | –
CCc1ccc(/C=C2\Oc3cc(O)cc(O)c3C2=O)o1 [Example 7n, (Z)-4,6-Dihydroxy-2-[(5-ethylfuran)methylene]benzofuran-3(2H)-one] | – | 28.5 | 13.4 | – | –
Cc1cc(/C=C2\Oc3cc(O)cc(O)c3C2=O)oc1C [Example 7o, (Z)-4,6-Dihydroxy-2-[(4,5-dimethylfuran)methylene]benzofuran-3(2H)-one] | – | 13.6 | 4.5 | – | –
O=C1/C(=C/c2cccs2)Oc2cc(O)cc(O)c21 [Example 7p, (Z)-4,6-Dihydroxy-2-[(thiophene)methylene]benzofuran-3(2H)-one] | – | 35.2 | 15.3 | – | –
Cc1ccc(/C=C2\Oc3cc(O)cc(O)c3C2=O)s1 [Example 7q, (Z)-4,6-Dihydroxy-2-[(5-methylthiophene)methylene]benzofuran-3(2H)-one] | – | 16.4 | 7 | – | –
CCc1ccc(/C=C2\Oc3cc(O)cc(O)c3C2=O)s1 [Example 7r, (Z)-4,6-Dihydroxy-2-[(5-ethylthiophene)methylene]benzofuran-3(2H)-one] | – | 13.8 | 0 | – | –
O=C1/C(=C/c2ccc[nH]2)Oc2cc(O)cc(O)c21 [Example 7s, (Z)-4,6-Dihydroxy-2-[(pyrrole)methylene]benzofuran-3(2H)-one] | – | 22.8 | 9.1 | – | –
Cc1cc(C)c(/C=C2\Oc3cc(O)cc(O)c3C2=O)[nH]1 [Example 7t, (Z)-4,6-Dihydroxy-2-[(3,5-dimethylpyrrole)methylene]benzofuran-3(2H)-one] | – | 26.4 | 0 | – | –
O=C1/C(=C/c2ccccc2O)Oc2cc(O)cc(O)c21 [Example 9c] | – | 12.85 | 4.32 | – | –
